Values of other authors in patent US20190151262A1, “USE OF N-ACETYLCYSTEINE AMIDE FOR DECREASING INTRACRANIAL PRESSURE” (priority 2013, published 2019).

System: intra-cranial pressure
Settings: previously tried anti-oxidant; Thomale et al. Intensive Care Med. 32:149-155 (2006)

## CC(=O)N[C@@H](CS)C(=O)O [NAC, n-acetylcysteine]
  decrease of intra-cranial pressure: no success
